{"source": "patent US20240041830A1", "about": "“CIRCULATING BIOMARKERS OF RESPONSE TO PD-1/PD-L1 BLOCKADE AND GSK-3 INHIBITION” (Brown University, priority 2022, published 2024)", "key": {"KM12C": {"tested_on": "KM12C", "assay": "microarray analysis", "type": "cell-based, human", "details": "1 μM, 24 hours, vs untreated"}, "NK-92": {"tested_on": "NK-92", "assay": "10× single-cell sequencing", "type": "cell-based, human", "details": "1 μM, twenty-four hours vs DMSO", "experimental": "(§1) Single-cell RNA sequencing. Single cells were captured and 3′ single-cell gene expression libraries were conducted (Next GEM v3.1) using the 10× Genomics Chromium system by SingulOmics (SingulOmics, New York, NY, USA). Gene expression libraries were sequenced with ˜200 million PE150 reads per sample on Illumina (RRID: SCR_016387) NovaSeq (Illumina, Inc., San Diego, CA, USA). After sequencing, clean reads were then analyzed with human reference genome GRCh38 using Cell Ranger v6.1.2 (RRID: SCR_017344, 10× Genomics, Pleasanton, CA, USA). Data were analyzed and visualized using Loupe Browser (RRID: SCR_018555, 10× Genomics, Pleasanton, CA, USA).\n(§2) To determine if there was any heterogeneity in response to drug treatment, the inventors employed a 10× single-cell sequencing analysis on both immune cell lines (TALL-104, NK-92) treated with low-dose 1 μM elraglusib or vehicle control (DMSO) for twenty-four hours. Samples clustered by cell type when aggregate data were visualized using a t-SNE plot (FIG. 3G). […] The inventors noted an increase in immune cell attractant CCL4 in the NK-92 cells and an increase in immune cell chemoattractant CXCR4 in the TALL-104 cells."}, "TALL-104": {"tested_on": "TALL-104", "assay": "10× single-cell sequencing", "type": "cell-based, human", "details": "1 μM, twenty-four hours vs DMSO", "experimental": "as §1, §2"}, "[1]": {"tested_on": "adult T-cell leukemia/lymphoma (ATLL)", "assay": "case of refractory ATLL treated in clinical trial NCT03678883", "type": "in vivo, human", "description": "This EXAMPLE discloses a case of adult T-cell leukemia/lymphoma (ATLL) treated with elraglusib. A patient developed diffuse lymphadenopathy. […] CSF was positive for ATLL involvement. Twenty-two months after the diagnosis of ATLL was confirmed, as a fourth-line therapy in the presence of actively progressing disease, the patient was enrolled a Phase I/II study investigating the safety and efficacy of elraglusib, a selective small molecule inhibitor of glycogen synthase kinase-3 beta (GSK-3β) as monotherapy or in combination with chemotherapy in refractory solid tumors and hematological malignancies (NCT03678883). The patient started treatment with single-agent elraglusib (12.37 mg/kg IV twice weekly: 21-day cycle). […] This stability was confirmed on CT imaging after five and seven cycles of therapy."}}, "data": [{"smiles": "Cn1cc(C2=C(c3coc4ccc(F)cc34)C(=O)NC2=O)c2cc3c(cc21)OCO3", "note": "[elraglusib]", "values": [{"measurement": "AGGF1 Fold Change", "setting": "KM12C", "result": "−1.6"}, {"measurement": "BARD1 Fold Change", "setting": "KM12C", "result": "−3.03"}, {"measurement": "BCL9 Fold Change", "setting": "KM12C", "result": "−1.55"}, {"measurement": "BIK Fold Change", "setting": "KM12C", "result": 1.51}, {"measurement": "BRAF Fold Change", "setting": "KM12C", "result": "−2.05"}, {"measurement": "BRCA1 Fold Change", "setting": "KM12C", "result": "−1.71"}, {"measurement": "BRD3 Fold Change", "setting": "KM12C", "result": "−1.58"}, {"measurement": "CCND2 Fold Change", "setting": "KM12C", "result": "−1.58"}, {"measurement": "CCNE1 Fold Change", "setting": "KM12C", "result": "−1.57"}, {"measurement": "CCNE2 Fold Change", "setting": "KM12C", "result": "−2.64"}, {"measurement": "CD109 Fold Change", "setting": "KM12C", "result": "−2.09"}, {"measurement": "CDC25C Fold Change", "setting": "KM12C", "result": "−1.55"}, {"measurement": "CDCA2 Fold Change", "setting": "KM12C", "result": "−1.51"}, {"measurement": "CDK1 Fold Change", "setting": "KM12C", "result": "−2"}, {"measurement": "CXCL1 Fold Change", "setting": "KM12C", "result": "−1.53"}, {"measurement": "E2F7 Fold Change", "setting": "KM12C", "result": "−2.5"}, {"measurement": "E2F8 Fold Change", "setting": "KM12C", "result": "−3.16"}, {"measurement": "ERBB2IP Fold Change", "setting": "KM12C", "result": "−1.88"}, {"measurement": "FZD3 Fold Change", "setting": "KM12C", "result": "−1.76"}, {"measurement": "GDF15 Fold Change", "setting": "KM12C", "result": "−2.29"}, {"measurement": "GZMA Fold Change", "setting": "KM12C", "result": 1.53}, {"measurement": "IGF2BP2 Fold Change", "setting": "KM12C", "result": "−1.51"}, {"measurement": "IL6ST Fold Change", "setting": "KM12C", "result": "−1.88"}, {"measurement": "IL27RA Fold Change", "setting": "KM12C", "result": "−1.72"}, {"measurement": "IL32 Fold Change", "setting": "KM12C", "result": 1.55}, {"measurement": "IRF2BP2 Fold Change", "setting": "KM12C", "result": "−1.6"}, {"measurement": "JMY Fold Change", "setting": "KM12C", "result": "−2.03"}, {"measurement": "LTBP1 Fold Change", "setting": "KM12C", "result": "−2.24"}, {"measurement": "MAP2K6 Fold Change", "setting": "KM12C", "result": "−3.66"}, {"measurement": "MAP3K1 Fold Change", "setting": "KM12C", "result": "−1.92"}, {"measurement": "MDM2 Fold Change", "setting": "KM12C", "result": "−1.61"}, {"measurement": "MET Fold Change", "setting": "KM12C", "result": "−1.79"}, {"measurement": "MKI67 Fold Change", "setting": "KM12C", "result": "−1.53"}, {"measurement": "MTBP Fold Change", "setting": "KM12C", "result": "−1.58"}, {"measurement": "MTDH Fold Change", "setting": "KM12C", "result": "−1.74"}, {"measurement": "NFKBIA Fold Change", "setting": "KM12C", "result": "−2.51"}, {"measurement": "NRP1 Fold Change", "setting": "KM12C", "result": "−1.88"}, {"measurement": "TAB3 Fold Change", "setting": "KM12C", "result": "−1.63"}, {"measurement": "TGFBR2 Fold Change", "setting": "KM12C", "result": "−2.11"}, {"measurement": "TGFBR3 Fold Change", "setting": "KM12C", "result": "−3.72"}, {"measurement": "TLR3 Fold Change", "setting": "KM12C", "result": "−2.25"}, {"measurement": "TNFRSF1B Fold Change", "setting": "KM12C", "result": "−1.56"}, {"measurement": "TNFRSF10A Fold Change", "setting": "KM12C", "result": "−1.54"}, {"measurement": "TNFRSF11A Fold Change", "setting": "KM12C", "result": "−1.64"}, {"measurement": "TNFRSF12A Fold Change", "setting": "KM12C", "result": 1.53}, {"measurement": "TNIK Fold Change", "setting": "KM12C", "result": "−1.59"}, {"measurement": "TRAF5 Fold Change", "setting": "KM12C", "result": "−1.52"}, {"measurement": "TRAF6 Fold Change", "setting": "KM12C", "result": "−1.57"}, {"measurement": "TRAIP Fold Change", "setting": "KM12C", "result": 1.53}, {"measurement": "TRIB1 Fold Change", "setting": "KM12C", "result": "−2.37"}, {"measurement": "CCL4 expression", "setting": "NK-92", "result": "increase"}, {"measurement": "CD69 expression", "setting": "NK-92", "result": "increase"}, {"measurement": "CHI3L1 expression", "setting": "NK-92", "result": "decrease"}, {"measurement": "CD69 expression", "setting": "TALL-104", "result": "increase"}, {"measurement": "CHI3L1 expression", "setting": "TALL-104", "result": "decrease"}, {"measurement": "CXCR4 expression", "setting": "TALL-104", "result": "increase"}, {"measurement": "tolerability", "setting": "[1]; 12.37 mg/kg IV twice weekly", "result": "tolerated the treatment well without significant adverse effects"}, {"measurement": "sIL-2 r serum concentration", "setting": "[1]; after nineteen cycles of treatment, 9,043 ng/ml one month before treatment", "result": "2,094 ng/ml"}, {"measurement": "CT imaging response by RECIST Criteria", "setting": "[1]; after ten cycles (seven months), 12.37 mg/kg IV twice weekly", "result": "partial response"}, {"measurement": "CT imaging response", "setting": "[1]; after two cycles, 12.37 mg/kg IV twice weekly, 21-day cycle", "result": "stable disease"}, {"measurement": "duration of sustained reduction of peripheral blood ATLL cells", "setting": "[1]; elraglusib monotherapy", "result": "fifteen"}]}]}
